Patent US20260324636A1, “COMPOSITION FOR PROVIDING PLANT WITH STRESS RESISTANCE” (KIRIN HOLDINGS KABUSHIKI KAISHA, priority 2022, published 2026)

How the values were obtained:
H1ZAT12 = H1ZAT12 gene expression by real-time PCR, Example 13; type: in vivo, hop; conditions: 1 mM in medium, 20° C. for 2 hours, leaves; read-out: H1ZAT12 expression level, increase vs control
From the text: The materials as used in Example 4 were used.
The medium as used in Example 4 were used.
In order to design primers for the target genes necessary for gene expression analysis by real-time PCR, homologs of Arabidopsis thaliana oxidation stress-responsive genes in hop were searched for. The amino acid sequences of Arabidopsis thaliana ZAT10 (AGI code: AT1G27730) and ZAT12 (AGI code: AT5G59820) were obtained from TAIR (https://www.arabidopsis.org/), and the nucleotide sequences of the gene homologs were obtained using Hopbase (http:/hopbase.cgrb.oregonstate.edu/). […] As the reference gene, the nucleotide sequence of the homolog of Arabidopsis thaliana EF1α (AGI code: AT1G18070) was obtained. The hop homolog genes were designated as H1ZAT10, H1ZAT12, and HIEF1α, respectively.
The leaves in the first and the second nodes from the apical buds of the tissue-cultured seedlings were sampled 1.5 months after the initiation of subculture and inoculated into a liquid medium consisting of a ½ Murashige and Skoog Plant Salt Mixture and 2 (w/v) % glucose. Specifically, a liquid medium was dispensed at 5 ml/well to a 6-well microplate, and 5 hop leaves were mounted thereon. […]
Thereafter, the relative expression levels of the target genes upon N-acetylglutamic acid treatment were calculated by the ΔΔCt method.

HAC12 = HAC12 gene expression by real-time PCR, Example 15; type: in vivo; conditions: Arabidopsis thaliana; 0.1 mM in medium, 2 hours after application, 22° C.; read-out: HAC12 expression level, increase vs group not subjected to the treatment
Procedure: (§1) The materials as used in Example 14 were used.
(§2) A liquid medium containing a ½ Murashige and Skoog Plant Salt Mixture (Nacalai) and 1 (w/v) % sucrose (FUJIFILM Wako) was used as a growth medium.
(§3) Arabidopsis thaliana seeds were sterilized with the use of a Kitchen Haiter® liquid (Kao Corporation) diluted to one-half concentration with distilled water for 3 minutes, washed 3 times with sterile distilled water, and then incubated at 4° C. overnight. The growth medium was dispensed at 1 ml/well on a 12-well microplate (IWAKI), 5 grains of the seeds were inoculated in each well, and the plate was transferred to the incubator (TOMY) to initiate growing. The incubator was maintained at a temperature of 22° C. for a daily cycle of 16 hours light and 8 hours darkness.
(§4) N-acetylglutamic acid was applied to Arabidopsis thaliana 7 days after inoculation to the final concentration of 0.1 mM in the medium, followed by incubation for 2 hours or 6 hours. The incubator was maintained at a temperature of 22° C. for a daily cycle of 16 hours light and 8 hours darkness. After incubation, the samples were frozen with liquid nitrogen, and RNA was extracted using the RNeasy Plant Mini Kit […]. […]
(§5) Thereafter, the relative expression levels of the target genes upon N-acetylglutamic acid treatment were calculated by the ΔΔCt method using the Cp values obtained by real-time PCR.

HAC1 = HAC1 gene expression by real-time PCR, Example 15; type: in vivo; conditions: Arabidopsis thaliana; 0.1 mM in medium, 2 hours after application, 22° C.; read-out: HAC1 expression level, increase vs group not subjected to the treatment
Procedure: as §1, §2, §3, §4, §5

SMILES: CC(=O)N[C@@H](CCC(=O)O)C(=O)O [N-acetylglutamic acid]
- fold induction at 1000 µM (H1ZAT12): 1.9
- fold induction at 100 µM (HAC12): 1.3
- fold induction at 100 µM (HAC1): 1.2
